Assay results: patent US20050074777A1, “Novel cell-surface estrogen receptor and related compositions and methods” (priority 2002, published 2005)
Entries after “also recorded” stand apart in the source; their conditions may differ. Values belong to the compound of their own block, whether it stands above or below them.

Key:
ERK1/2 phosphorylation [1] = conditions: neocortical explants (Singh, 2000); cited from earlier work
[2] = system: ER-X (plasma-membrane estrogen binding site of P7 ERKO neocortex); test: Specificity (competition) of 3H-estradiol binding in Percoll-purified P7 ERKO neocortical membranes; set-up: species or system mouse; conditions: 2 nM 3H-estradiol, 18 hours at 4° C.
Method: Binding of ^3H estradiol to Percoll®-purified plasma-membranes from P7 ERKO and wild-type mouse neocortex. (a) Identical amounts of membrane protein (50 μg/tube) were incubated with varying concentrations of ^3H estradiol (0.3-8 nM) for 18 hours at 4° C. The reaction was terminated by addition of hydroxylapatite (HAP). The membranes and HAP were sedimented by centrifugation in a microfuge, and the pellet washed 4 times to remove free steroid. Radioactivity in the pellets was extracted with ethanol and counted. […] (b) Specificity of the binding site in Percoll®-purified membranes from P7 ERKO mouse neocortex. […] Bound ^3H estradiol was separated by sedimentation with HAP and counted at an efficiency of 50%. Data represent the number of bound counts (after subtraction of HAP-only blank control tubes, containing no membrane protein) expressed as the means +/−S.D. of triplicate determinations. The horizontal dashed line indicates the level of non-specific binding observed in the presence of 1 μM DES. Estrogen binding assay. Duplicate aliquots of 1 mg each of protein lysate from ERKO P7 neocortex or wild-type adult uterus were pre-cleared for 30 minutes using anti-rabbit-IgG-coated magnetic beads (Dynal AS). Pre-cleared protein lysates were immunoprecipitated with anti-ER-α antibodies (6F11, Novocastra; or MC20, Santa Cruz) at 4° C. overnight. […] NEN Life Sciences, Boston, Mass.) at 4° C. for 18 hours. The incubation was terminated by adsorption of the binding sites onto an equal volume of hydroxylapatite (HAP) slurry in TESD buffer. HAP pellets were washed four times with Tris-buffered saline containing 0.2% Tween-20 buffer and extracted with 1 ml absolute ethanol overnight at room temperature. The ethanol supernatants were transferred to liquid scintillation fluid (5 ml) and counted. Control tubes, used in assessing HAP adsorption of free steroid, contained HAP and the same buffer constituents, without addition of the membranes. Non-specific binding was assayed in the membranes using the same amount of radioactive ligand plus 200-fold molar excess of unlabeled diethylstilbestrol (DES) (Sigma-Aldrich). Specific binding was calculated by subtracting non-specific from total binding.

ERK1/2 phosphorylation [3] = test: ERK1/2 phosphorylation in post-nuclear supernatant (PNS), cell-free system; format: biochemical, mouse; conditions: for phosphorylation of ERK1 and ERK2: P7 wild-type neocortical PNS, 10 minutes, 37° C.
Source text: Isolation of post-nuclear supernatant (PNS). To increase the yield of ER-X and to test in a cell-free system whether the presence of ER-α is inhibitory for ERK activation, as had been shown previously in neocortical cultures (Singh, 2000), PNS, a cell-free system which contains all the cell organelles except the nucleus, was studied. PNS was isolated from P7 wild-type and ERKO neocortices according to the method of Smart et al. (Smart, 1995). Three to four P7 wild-type and ERKO neocortices were homogenized using a teflon homogenizer in 1 ml of 20 mM Tricine, pH 7.8 buffer, containing 1 mM EDTA, 0.25M sucrose, 10 μg/ml aprotinin and 1 μg/ml leupeptin. The homogenate was centrifuged at 1000×g at 4° C. for 10 minutes. The supernatant obtained is the PNS. The pellet was resuspended in 500 μl of the homogenization buffer, re-centrifuged, and the PNS obtained was pooled with the first PNS. ERKO and wild-type PNS were mixed with 10X phosphorylation buffer, and the MAPK assay was performed as described above.

ERK1/2 phosphorylation [4] = test: Phosphorylation of ERK1/2 in ERKO CLM and non-CLM preparations; format: biochemical, mouse; conditions: for phosphorylation of ERK1/2: 30 minutes
Method: Phosphorylation of ERK1/2 in CLM and non-CLM preparations. Phosphorylation of ERK1/2 in ERKO CLM and non-CLM preparations was examined following the method of Liu et al. (Liu, 1997), except that basal medium Eagle (BME) was used in the place of MEM. Nine parts of CLM or non-CLM preparations were mixed with one part of 10×BME, pH 7.4 containing BSA 800 μg/ml, 10 mM NaF, 2 mM Na3VO4, leupeptin 100 μg/ml, soybean trypsin inhibitor 100 μg/ml, 10 mM MgCl2, and 1 mM ATP. […] Cell Signaling Technology, Beverly, Mass.) for 30 minutes prior to pulsing them with the appropriate estradiol. […] (Singh, 1999; and Singh, 2000).

ERK1/2 phosphorylation [5] = test: ERK1/2 phosphorylation in neocortical explant cultures (Western immunoblot); format: cell-based, mouse; conditions: wild-type neocortical cultures
Method: Neocortical cultures. Organotypic explant cultures, obtained from 360 pm hemi-coronal slices of the frontal and cingulate neocortex of P2 wild-type and ERKO mice (day of birth =P1), were explanted onto collagen-coated, poly-D-lysine pre-coated coverslips and maintained in roller tube culture with gonadal steroid-deficient (gelding serum) and phenol red-free nutrient medium, as previously described (Singh, 1999; and Singh, 2000). The nutrient medium was supplemented with 17β-estradiol (2 nM; Sigma-Aldrich, St. Louis, Mo.) for one week, in order to optimize the development of CNS cultures from estrogen target regions. […]
Antibody binding to protein was detected using a secondary antibody conjugated to horseradish peroxidase (1:40,000; Pierce Chemical Company, Rockford, Ill.), and visualized autoradiographically on film using enzyme-linked chemiluminescence (ECL®; Amersham Pharmacia Biotech) (Singh et, 1999; and Singh, 2000). All blots were stripped and re-probed with the appropriate antibody to verify equal loading of protein across lanes and were analyzed densitometrically. […]

[6] = system: estrogen-binding protein (ER-X); test: DES-sensitive 3H-estradiol binding in CLM preparations and lysates; set-up: species or system mouse; conditions: unlabeled competitor in excess
Method: Caveolar-like membrane (CLM) preparation. Membrane fractions were prepared by adapting the detergent-free method of Smart et al. (Smart, 1995). Briefly, pools of 40-50 P7 ERKO neocortices were homogenized in 20 mM Tricine, pH 7.8 buffer, containing 1 mM EDTA, 0.25M sucrose and 1 mM dithiothreitol (TESD buffer), then centrifuged at 1000×g at 4° C. for 10 minutes. The pellet was resuspended in TESD buffer, re-centrifuged, and the supernatants pooled. The combined supernatants were subjected to Percoll® gradient fractionation in the same buffer to isolate the plasma membrane fraction. In some binding experiments (indicated below), Percoll® purified plasma membranes were used without further fractionation. For preparation of CLMs, plasma-membranes were sonicated and further separated by centrifugation on a linear 20% to 10% OptiPrep (iodixanol) gradient (Nycomed Pharma AS, Oslo, Norway). Based upon their light buoyant density, CLMs were separated and purified from non-CLMs using two OptiPrep density gradients. […] Electrophoretically separated CLMs on PVDF membranes were probed with antibodies specific for ER-α ([…], UBI; MC20, Santa Cruz), ER-β (Zymed), flotillin (BD Transduction Labs) and other caveolar-resident proteins (PKC-α and PKC-γ, BD Transduction Labs) and non-caveolar-resident proteins (paxillin, BD Transduction Labs). Estrogen binding assay. Duplicate aliquots of 1 mg each of protein lysate from ERKO P7 neocortex or wild-type adult uterus were pre-cleared for 30 minutes using anti-rabbit-IgG-coated magnetic beads (Dynal AS). Pre-cleared protein lysates were immunoprecipitated with anti-ER-α antibodies (6F11, Novocastra; or MC20, Santa Cruz) at 4° C. overnight. […] NEN Life Sciences, Boston, Mass.) at 4° C. for 18 hours. The incubation was terminated by adsorption of the binding sites onto an equal volume of hydroxylapatite (HAP) slurry in TESD buffer. HAP pellets were washed four times with Tris-buffered saline containing 0.2% Tween-20 buffer and extracted with 1 ml absolute ethanol overnight at room temperature. The ethanol supernatants were transferred to liquid scintillation fluid (5 ml) and counted. Control tubes, used in assessing HAP adsorption of free steroid, contained HAP and the same buffer constituents, without addition of the membranes. Non-specific binding was assayed in the membranes using the same amount of radioactive ligand plus 200-fold molar excess of unlabeled diethylstilbestrol (DES) (Sigma-Aldrich). Specific binding was calculated by subtracting non-specific from total binding.

ERK1/2 phosphorylation [7] = test: Cholesterol depletion: ERK1/2 phosphorylation in neocortical explants pre-treated with Nystatin; format: cell-based, mouse; conditions: P9 wild-type neocortical explants, 50 μg/ml for 1 hour before a 30 minute pulse
Method: Cholesterol depletion. To determine whether disruption of CLMs impairs estrogen activation of the MAPK cascade, neocortical explants were pre-treated on P9 with the sterol binding agent Nystatin (50 μg/ml) (Sigma-Aldrich), a compound used extensively to document the association of growth factor receptors with caveolae/CLMs (Huang, 1999). […] P9 neocortical explants were exposed to Nystatin (50 μg/ml) (Sigma-Aldrich), BDNF (10 ng/ml) or vehicle control (PBS) for 1 hour prior to pulsing with 10 nM 17β-estradiol for 30 minutes in the continued presence of Nystatin, BDNF or vehicle. Explants were then analyzed by Western immunoblot analysis for phospho-ERK expression using antibodies to phosphorylated p44/42 MAP Kinase (ERK1/2, Thr202/Tyr204; Cell Signaling Technology), as previously described (Singh, 1999; and Singh, 2000).

[8] = 1 μM unlabelled competitor (500-fold molar excess)

Compound: C[C@]12CC[C@@H]3c4ccc(O)cc4CC[C@H]3[C@@H]1C[C@@H](I)[C@@H]2O [16α-iodo-17β-estradiol]
activation of ERK1/2 by ER-α- or ER-β-selective ligands (ERK1/2 phosphorylation [1]): not activated

inhibition of binding of 3H-estradiol ([2]; 50 nM unlabelled competitor): markedly inhibited
inhibition of binding of 3H-estradiol [2, 8]: reduced to the non-specific levels
Compound: C[C@]12CC[C@@H]3c4ccc(O)cc4CC[C@H]3[C@@H]1CC[C@H]2O [17α-estradiol]
phosphorylation of ERK1 and ERK2 (ERK1/2 phosphorylation [3]; 0.1 nM): elicited MEK-dependent (U0126) phosphorylation of ERK1 and ERK2
phosphorylation of ERK1/2 (ERK1/2 phosphorylation [4]; P7 ERKO neocortical CLMs, 0.1 nM): elicited phosphorylation of ERK1/2
phosphorylation of ERK1/2 (ERK1/2 phosphorylation [4]; non-CLM regions of the plasma membrane, 0.1 nM): did not respond

inhibition of binding of 3H-estradiol ([2]; 50 nM unlabelled competitor): markedly inhibited
inhibition of binding of 3H-estradiol [2, 8]: reduced to the non-specific levels
Compound: C[C@]12CC[C@@H]3c4ccc(O)cc4CC[C@H]3[C@@H]1CC[C@@H]2O [17β-estradiol]
concentration range eliciting activation of ERK1/2 (ERK1/2 phosphorylation [5]): 0.1 to 10 nM
phosphorylation of ERK1 and ERK2 (ERK1/2 phosphorylation [3]; 10 nM): significantly less than the levels following exposure to 17α-estradiol; also recorded: elicited MEK-dependent (U0126) phosphorylation of ERK1 and ERK2
phosphorylation of ERK1/2 (ERK1/2 phosphorylation [4]; P7 ERKO neocortical CLMs, 10 nM): elicited phosphorylation of ERK1/2
phosphorylation of ERK1/2 (ERK1/2 phosphorylation [4]; non-CLM regions of the plasma membrane, 10 nM): did not respond

effect on binding of 10 nM 3H-estradiol to P7 ERKO CLMs [6]: suppressed
Compound: CC/C(=C(/CC)c1ccc(O)cc1)c1ccc(O)cc1 [DES, diethylstilbestrol]

Compound: C[C@@H]1[C@H](O)[C@@H](C)/C=C/C=C/CC/C=C/C=C/C=C/C=C/C(O[C@H]2O[C@H](C)[C@@H](O)[C@H](N)[C@@H]2O)CC2O[C@](O)(CC(O)C(O)CCC(O)CC(O)CC(O)CC(=O)O[C@H]1C)CC(O)C2C(=O)O (stereo partly shown) [Nystatin]
effect on ERK1/2 phosphorylation elicited by 17β-estradiol (10 nM) and BDNF (ERK1/2 phosphorylation [7]): decreased the ability of both estradiol and BDNF to elicit ERK1/2 phosphorylation

Compound: N#CC(=C(/N)Sc1ccccc1N)/C(C#N)=C(\N)Sc1ccccc1N [U0126]
effect on estradiol-induced ERK1/2 phosphorylation (ERK1/2 phosphorylation [3]; wild-type neocortical PNS, 10 μM): inhibited
effect on estradiol-induced ERK activation (ERK1/2 phosphorylation [4]; P7 ERKO neocortical CLMs, 10 μM, 30 minutes pre-treatment): inhibited

Compound: O=c1oc2cc(O)ccc2c2oc3cc(O)ccc3c12 [coumestrol]
activation of ERK1/2 by ER-α- or ER-β-selective ligands (ERK1/2 phosphorylation [1]): not activated

Compound: O=c1c(-c2ccc(O)cc2)coc2cc(O)cc(O)c12 [genistein]
activation of ERK1/2 by ER-α- or ER-β-selective ligands (ERK1/2 phosphorylation [1]): not activated

inhibition of binding of 3H-estradiol [2, 8]: only partially suppressing binding
Compound: CC(=O)[C@H]1CC[C@H]2[C@@H]3CCC4=CC(=O)CC[C@]4(C)[C@H]3CC[C@]12C [progesterone]
